Read-outs that look alike come from different tables or passages of the source. Where a SMILES comes first, the peptide text is derived from it. Bridges are numbered along the chain shown (N, C = ends). [ ]: non-standard residue; d: D form. The star is where a group is joined. hPhe(3-Cl-4-CF3) = N[C@@H](CCc1ccc(C(F)(F)F)c(Cl)c1)C(=O)O; NPrPhe(4-CF3) = CCCN[C@@H](Cc1ccc(C(F)(F)F)cc1)C(=O)O; NMeGly(cPent) = CN[C@H](C(=O)O)C1CCCC1; cisHyp = O=C(O)[C@@H]1C[C@H](O)CN1; NMeD = CN[C@@H](CC(=O)O)C(=O)O; NMeL = CN[C@@H](CC(C)C)C(=O)O; Morpholide = C1CN(*)CCO1; NMeA = CN[C@@H](C)C(=O)O; Ac5c = NC1(C(=O)O)CCCC1; Aze = O=C(O)[C@@H]1CCN1; Sar = CNCC(=O)O

Assay [1] has as its target GDP-bound KRAS wild-type protein (Homo sapiens, UniProt P01116). In words: Binding to KRAS by surface plasmon resonance (SPR), Single Cycle Kinetics. The note with it: GDP-bound KRAS wild-type protein, read-out: KRAS KD.
Assay [2] has as its target GDP-bound NRAS wild-type protein (Homo sapiens, UniProt P01111). Briefly: Binding to NRAS by surface plasmon resonance (SPR), Single Cycle Kinetics. The conditions noted are these: for NRAS/KRAS (ratio of KD value for NRAS to KD value for KRAS): SPR, GDP-bound NRAS wild-type protein vs GDP-bound KRAS wild-type protein.
In assay [3] the target is GDP-bound HRAS wild-type protein (Homo sapiens, UniProt P01112). In words: Binding to HRAS by surface plasmon resonance (SPR), Single Cycle Kinetics. The conditions noted are these: for HRAS/KRAS (ratio of KD value for HRAS to KD value for KRAS): SPR, GDP-bound HRAS wild-type protein vs GDP-bound KRAS wild-type protein.
Chain of GDP-bound HRAS wild-type protein (P01112 whole entry): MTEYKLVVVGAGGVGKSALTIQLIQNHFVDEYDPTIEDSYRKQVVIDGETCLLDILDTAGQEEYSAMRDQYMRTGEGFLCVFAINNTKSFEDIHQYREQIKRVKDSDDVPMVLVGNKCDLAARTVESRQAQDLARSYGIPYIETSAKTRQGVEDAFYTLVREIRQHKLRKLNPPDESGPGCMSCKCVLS
Setting [4] is: SPR Single Cycle Kinetics, 1:1 binding model.

Chain of GDP-bound KRAS wild-type protein (P01116 whole entry): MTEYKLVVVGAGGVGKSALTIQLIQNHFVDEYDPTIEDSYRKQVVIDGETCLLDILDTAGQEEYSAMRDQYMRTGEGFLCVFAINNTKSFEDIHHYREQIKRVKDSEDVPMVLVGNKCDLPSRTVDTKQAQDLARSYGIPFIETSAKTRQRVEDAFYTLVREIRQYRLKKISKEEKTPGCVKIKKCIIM
Chain of GDP-bound NRAS wild-type protein (P01111 whole entry): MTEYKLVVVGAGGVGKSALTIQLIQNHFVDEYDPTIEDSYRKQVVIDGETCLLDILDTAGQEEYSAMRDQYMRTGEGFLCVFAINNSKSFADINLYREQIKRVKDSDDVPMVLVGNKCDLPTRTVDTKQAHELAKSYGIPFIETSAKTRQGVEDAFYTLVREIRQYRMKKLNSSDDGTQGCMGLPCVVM

With `CCO[C@@H]1C[C@H]2C(=O)NC3(CCC3)C(=O)N(C)[C@@H](C3CCCC3)C(=O)N(C)[C@H](C(=O)N3CCOCC3)CC(=O)N(C)[C@@H](CC(C)C)C(=O)N[C@@H]([C@@H](C)CC)C(=O)N(C)CC(=O)N(C)[C@H]3CCCCCN(C3=O)[C@@H](Cc3ccc(F)c(Cl)c3)C(=O)N(C)CC(=O)N[C@@H](CCc3cc(F)c(C(F)(F)F)c(F)c3)C(=O)N2C1` [PP0919], the Kd in assay [1] (SPR, Single Cycle Kinetics) amounted to 810 pM. The “NRAS/KRAS (ratio of KD value for NRAS to KD value for KRAS)” value in assay [2] is “B (a compound having 3 or more and less than 10 is denoted as B)”. Besides, the “HRAS/KRAS (ratio of KD value for HRAS to KD value for KRAS)” value in assay [3] is “B (a compound having 3 or more and less than 10 is denoted as B)”.

As to `CCCN1C(=O)[C@@H]2CCN2C(=O)[C@H](C)N(C)C(=O)[C@H]([C@@H](C)CC)NC(=O)[C@H](CC(C)C)N(C)C(=O)C[C@@H](C(=O)N2CCOCC2)N(C)C(=O)[C@H](C2CCCC2)N(C)C(=O)C2(CCCC2)NC(=O)[C@@H]2C[C@H](OCC)CN2C(=O)[C@H](CCc2ccc(C(F)(F)F)c(Cl)c2)NC(=O)CN(C)C(=O)[C@@H]1Cc1ccc(C(F)(F)F)cc1` [PP0242] ([NMeL]I[NMeA][Aze][NPrPhe(4-CF3)][Sar][hPhe(3-Cl-4-CF3)][cisHyp](Et)[Ac5c][NMeGly(cPent)][NMeD]-Morpholide; lactam N-11), in assay [1] (setting [4]), the Kd was 200 pM. Moreover, the “NRAS/KRAS (ratio of KD value for NRAS to KD value for KRAS)” value in assay [2] was “C (A compound having a KD ratio of 0.1 or more and less than 3 is denoted as C)”. In addition, the “HRAS/KRAS (ratio of KD value for HRAS to KD value for KRAS)” value in assay [3] was “C (A compound having a KD ratio of 0.1 or more and less than 3 is denoted as C)”.

For `CCC[C@H]1C(=O)N[C@@H]([C@@H](C)CC)C(=O)N(C2CC2)CC(=O)N(C)[C@H]2C/C=C\CCN(C2=O)[C@@H](Cc2ccc(C(F)(F)F)cc2)C(=O)N(C)CC(=O)N[C@@H](CCc2ccc(Cl)c(Cl)c2)C(=O)N2C[C@H](OCC)C[C@H]2C(=O)NC2(CC(C)(C)C2)C(=O)N(C)[C@@H](CC2CC2)C(=O)N(C)[C@H](C(=O)N(C)C)CC(=O)N1C` [PP2817], the Kd in assay [1] (setting [4]) came out at 2400 pM. For the same compound, the “NRAS/KRAS (ratio of KD value with respect to GDP-bound NRAS wild-type protein to KD value with respect to KRAS)” value in assay [2] (SPR KD ratio NRAS/KRAS, class symbols) was “A (a compound having 10 or more and less than 20 is denoted as A)”. In addition, in assay [3] (SPR KD ratio HRAS/KRAS, class symbols), the “HRAS/KRAS (ratio of KD value with respect to GDP-bound HRAS wild-type protein to KD value with respect to KRAS)” value is “A (a compound having 10 or more and less than 20 is denoted as A)”.

As to `CCCN1C(=O)[C@@H]2CCN2C(=O)CN(C)C(=O)[C@H]([C@@H](C)CC)NC(=O)[C@H](CC(C)C)N(C)C(=O)C[C@@H](C(=O)N2CCOCC2)N(C)C(=O)[C@H](C2CCCC2)N(C)C(=O)C2(CCCC2)NC(=O)[C@@H]2CCCN2C(=O)[C@H](CCc2ccc(C(F)(F)F)c(Cl)c2)NC(=O)CN(C)C(=O)[C@@H]1Cc1ccc(C(F)(F)F)cc1` [PP0156] ([NMeL]I[Sar][Aze][NPrPhe(4-CF3)][Sar][hPhe(3-Cl-4-CF3)]P[Ac5c][NMeGly(cPent)][NMeD]-Morpholide; lactam N-11), the Kd in assay [1] (setting [4]) stood at 120 pM. Also, the “NRAS/KRAS (ratio of KD value for NRAS to KD value for KRAS)” value in assay [2] is “C (A compound having a KD ratio of 0.1 or more and less than 3 is denoted as C)”. In addition, in assay [3], the “HRAS/KRAS (ratio of KD value for HRAS to KD value for KRAS)” value was “B (a compound having 3 or more and less than 10 is denoted as B)”.

For the compound `CCO[C@@H]1C[C@H]2C(=O)NC3(CC(C)(C)C3)C(=O)N(C)[C@@H](C(CC)CC)C(=O)N(C)[C@H](C(=O)N(C)C)CC(=O)N(C)[C@@H](CC3CCC3)C(=O)N[C@@H]([C@@H](C)CC)C(=O)N(C)CC(=O)N(C)[C@H]3C/C=C\CCN(C3=O)[C@@H](Cc3ccc(C)cc3)C(=O)N(C)CC(=O)N[C@@H](CCc3ccc(C(F)(F)F)c(Cl)c3)C(=O)N2C1` [PP2156], in assay [1] (SPR, Single Cycle Kinetics), the Kd was determined as 410 pM. For the same compound, the “NRAS/KRAS (ratio of KD value for NRAS to KD value for KRAS)” value in assay [2] is “AA (a compound having 20 or more is denoted as AA)”. Moreover, the “HRAS/KRAS (ratio of KD value for HRAS to KD value for KRAS)” value in assay [3] was “A (a compound having 10 or more and less than 20 is denoted as A)”.

With `CCCO[C@@H]1C[C@H]2C(=O)NC3(CC(C)(C)C3)C(=O)N(C)[C@@H](C3CCCC3)C(=O)N(C)[C@H](C(=O)N3CCCCC3)CC(=O)N(C)[C@H]3CCCc4ccc(cc4)C[C@@H](C(=O)N(C)CC(=O)N[C@@H](CCc4ccc(C(F)(F)F)c(OC)c4)C(=O)N2C1)N1CC/C=C\C[C@@H](C1=O)N(C)C(=O)CN(C)C(=O)[C@H]([C@@H](C)CC)NC3=O` [PP3064], the Kd in assay [1] (SPR, Single Cycle Kinetics) came to 370 pM. The “NRAS/KRAS (ratio of KD value for NRAS to KD value for KRAS)” value in assay [2] is “B (a compound having 3 or more and less than 10 is denoted as B)”. In assay [3], the “HRAS/KRAS (ratio of KD value for HRAS to KD value for KRAS)” value was “B (a compound having 3 or more and less than 10 is denoted as B)”.

As to `CCC[C@H]1C(=O)N[C@@H](C2CCOCC2)C(=O)N(C)CC(=O)N(C)[C@H]2C/C=C\CCN(C2=O)[C@@H](Cc2ccc(C(F)(F)F)cc2)C(=O)N(C)CC(=O)N[C@@H](CCc2ccc(C(F)(F)F)c(Cl)c2)C(=O)N2C[C@H](OCC)C[C@H]2C(=O)NC2(CC(C)(C)C2)C(=O)N(C)[C@@H](C2CCCC2)C(=O)N(C)[C@H](C(=O)N(C)C)CC(=O)N1C` [PP3000], the dissociation constant (Kd) in assay [1] (SPR, Single Cycle Kinetics) worked out at 1300 pM. For the same compound, in assay [2], the “NRAS/KRAS (ratio of KD value for NRAS to KD value for KRAS)” value is listed as “AA (a compound having 20 or more is denoted as AA)”. In assay [3], the “HRAS/KRAS (ratio of KD value for HRAS to KD value for KRAS)” value was “A (a compound having 10 or more and less than 20 is denoted as A)”.

The values above are taken from US20240158446A1, “CYCLIC COMPOUND HAVING SELECTIVE INHIBITORY ACTION ON KRAS OVER HRAS AND NRAS” (CHUGAI SEIYAKU KABUSHIKI KAISHA, priority 2021, published 2024).
